# Test results from patent US7622289B2, “Ornithine aminotransferase (OAT): a target for anticancer drugs” (Board of Regents, The University of Texas System, priority 2006, dated 2009).
# Residues, ends and D or L forms follow the SMILES beside them. *: point of attachment. Cbz = O=C(OCc1ccccc1)*; CH2F = FC*
# Experiments:
# [1] = tested on: endogenous OAT in HeLa cells; assay: OAT siRNA knock-down in HeLa cells; type: cell-based, human; details: added to OAT siRNA-treated HeLa cells
# Source text: OAT is well characterized as a mitochondrial matrix enzyme. In this context it regulates flux through the urea cycle and couples, indirectly, proline biosynthesis to the availability of fumarate for consumption in the TCA cycle (19). For reasons not completely understood, mutations in the human enzyme are associated with a progressive degeneration of the retina and choroid termed gyrate atrophy (20).
# [2] = biological target: T1, OAT enzymatic activity (Mus musculus, UniProt P29758); assay: Ornithine aminotransferase activity in crude mitochondrial extracts from mouse liver; type: biochemical; details: increasing concentrations
# T1 construct: Crude mitochondrial extracts from mouse liver were assayed for ornithine aminotransferase activity; from tissue; host or cells: mouse liver, crude mitochondrial extract
# T1 sequence (P29758 26-439): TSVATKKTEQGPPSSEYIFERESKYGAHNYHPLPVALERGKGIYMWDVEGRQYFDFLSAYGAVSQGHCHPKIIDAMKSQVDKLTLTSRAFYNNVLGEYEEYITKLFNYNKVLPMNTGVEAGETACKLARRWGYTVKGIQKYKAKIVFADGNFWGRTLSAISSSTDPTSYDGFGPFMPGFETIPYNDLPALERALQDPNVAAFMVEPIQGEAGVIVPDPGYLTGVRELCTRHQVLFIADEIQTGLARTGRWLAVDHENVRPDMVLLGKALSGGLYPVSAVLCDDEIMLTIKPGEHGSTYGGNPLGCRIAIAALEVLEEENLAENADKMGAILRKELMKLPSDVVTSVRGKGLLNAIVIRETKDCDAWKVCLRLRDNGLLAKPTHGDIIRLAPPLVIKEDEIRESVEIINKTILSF
# Description: To determine if diazonamide binds to OAT directly, recombinant His-tagged hOAT was produced in bacteria, purified, and incubated with compound 3-coated avidin agarose. […] We next examined the impact of diazonamide binding on OAT enzymatic activity. Crude mitochondrial extracts from mouse liver were assayed for ornithine aminotransferase activity in the presence of increasing concentrations of compounds 2 or 3.
# [3] = tested on: wild-type human fibroblasts; assay: Mitotic arrest (cell rounding) in wild-type human fibroblasts; type: cell-based; details: 10 nM for 30 hrs
# Description: (§1) The OAT locus has been examined in fibroblasts derived from GA patients wherein various point and nonsense mutations have been characterized (20). Such cell lines offered another means to solidify the connection between OAT, diazonamide, and its anti-mitotic properties. When wild-type human fibroblasts were exposed to 10 nM diazonamide A for 30 hrs, >60% of cells rounded up—indicative in this case of mitotic arrest. […] Among the mutant cell lines examined only R154L and R180T variants express OAT protein.
# [4] = tested on: fibroblast lines derived from gyrate atrophy patients harboring OAT mutations; assay: Mitotic arrest (cell rounding) in gyrate atrophy patient fibroblasts; type: cell-based, human; details: OAT mutations: initiator methionine, R154L, R180T, W391 nonsense
# Description: as §1
# [5] = tested on: BS-C-1 and PTK2 culture; assay: Interphase microtubules in BS-C-1 and PTK2 culture; type: cell-based; details: at GI50 concentrations
# Description: COMPARE pattern analysis of observed cytotoxic/cytostatic activities implied a mechanistic correlation between diazonamide and microtubule de-polymerizing agents such as maytansine and vinblastine. […] To test this possibility, a synthetic variant of diazonamide A (2, Table 1) was prepared.
# [6] = tested on: HeLa cells; assay: Mitotic arrest and spindle phenotype in HeLa cells; type: cell-based, human; details: 30 nM, eighteen hours following dosage
# Source text: Suitable spindle assembly systems include Xenopus egg extracts, Hela cells, COS-7 cells, CHO cells, U20S cells, etc. An agent-biased spindle assembly is a spindle-assembly that has a phenotype that differs from that of the first spindle assembly (i.e. the normal control). […] The spindle phenotypes are typically visualized by fixing the cells or cell extracts and differentially staining the α-tubulin and DNA [5]. Spindle assembly can also be visualized by live cell imaging.
# Biotin conjugate 3 (Table 1) was prepared to facilitate isolation of diazonamide binding proteins using avidin-based affinity chromatography. […] As a negative control, seco analog 5 was synthesized: […]
# [7] = tested on: tubulin; details: cited from earlier work
# [8] = tested on: cultured human cancer cell; details: cited from earlier work
# [9] = tested on: HeLa cell; assay: HeLa cell growth inhibition; type: cell-based, human
# Description: Biotin conjugate 3 (Table 1) was prepared to facilitate isolation of diazonamide binding proteins using avidin-based affinity chromatography. […] As a negative control, seco analog 5 was synthesized:
# This molecule is identical to 3 except it lacks the biaryl linkage connecting carbons 16 and 18 (Table 1).
smiles,measurement,setting,value
CC(NC(=O)C(NC(=O)OCc1ccccc1)C(C)C)C(=O)NC(CC(=O)O)C(=O)CF (stereo not drawn) [Z-VAD] (Cbz-Val-Ala-Asp-CH2F; configuration not given here),blocking of cell death in OAT siRNA-treated cells,[1],not blocked
C#CC(N)CCC(=O)O (centres unmarked) [4-aminohex-5-ynoic acid],inhibition of conversion of L-ornithine to L-Δ1-pyrroline-5-carboxylic acid,[2],suppressed the activity in a dose dependent manner
"CC(C)[C@H](O)C(=O)N[C@H]1Cc2ccc3c(c2)[C@]24C5=C(N=C(O5)[C@H](C(C)C)NC1=O)c1nc(Cl)c(o1)-c1c(Cl)[nH]c5cccc(c15)-c1cccc2c1N[C@@H]4O3 [Compound 1, (-)-diazonamide A]",cells rounded up (mitotic arrest),[3],> 60%
same,response of gyrate atrophy fibroblast lines,[4],resistant to the compound
same,impact on interphase microtubules,[5],little impact on interphase microtubules
same,spindle phenotype,[6],multi-pole spindle phenotype with misaligned chromosomes
same,competition with vinca alkaloids or nocadazole for tubulin binding,[7],did not compete
same,purified tubulin polymerization in vitro,[7],inhibit purified tubulin polymerization in vitro
same,concentration inhibiting cultured human cancer cell growth,[8],low nanomolar concentrations
same,GI50,[9],5 nM
N=C(N)NCCC[C@H](N)C(=O)O [L-arginine],blocking of cell death in OAT siRNA-treated cells,[1],failed to attenuate the rate of death or restore normal spindle assembly
